Results: ChEMBL document CHEMBL1128291, “The C-32 triacetyl-L-rhamnose derivative of ascomycin: a potent, orally active macrolactone immunosuppressant” (J Med Chem, 1995)

Key:
[1] = test system: Rattus norvegicus; test: In vivo immunosuppressive activity was evaluated by surgically implanting the hearts from Brown Norway rats into the peritoneal cavity of histoincompatible Lewis rats and rejection was assessed; format: functional
[2] = Therapeutic index was determined from the ratio of MND to the ED50 Cmax.(rat adjuvant arthritis)
[3] = test system: Rattus norvegicus; test: In vivo immunosuppressive activity was evaluated by inducing arthritis in lewis rats and measuring the primary lesions after 16 days; format: functional; details: 384 h
[4] = Drug plasma level in rat was determined on the last day of dosing at 1,2,4.8 and 24 hr and ED50 was evaluated; format: ADME, organism-based
[5] = test system: Rattus norvegicus; test: In vivo immunosuppressive activity was evaluated by inducing arthritis in lewis rats and measuring the secondary lesions after 16 days; format: functional; details: 384 h
[6] = species on record: Rattus norvegicus; test: Minimum neurotoxic dose from ED50(rat adjuvant arthritis); format: functional
[7] = species on record: Rattus norvegicus; test: Minimum neurotoxic dose/Cmax was determined from ED50(rat adjuvant arthritis); format: functional
[8] = test system: T-cell; test: In vitro inhibitory activity against human T-cell production of lymphokine IL-2; format: functional, cell-based
[9] = test system: T-cell; test: In vitro inhibitory activity against human T-cell proliferation.; format: functional, cell-based
[10] = Therapeutic index is the plasma Cmax ratio of the minimum neurotoxic dose over the ED50 dose in rat adjuvant arthritis; details: read-out: TI

Structure (SMILES)	ED100 [1] [mg/kg]	Therapeutic index [2]	ED50 [3] [mg/kg]	Cmax [4] [ng/mL]	ED50 [5] [mg/kg]	MND [6] [mg/kg]	MND Cmax [7] [ng/mL]	IC50 [8] [nM]	IC50 [9] [nM]	selectivity ratio [10]
CC[C@@H]1/C=C(\C)C[C@H](C)C[C@H](OC)[C@H]2O[C@@](O)(C(=O)C(=O)N3CCCC[C@H]3C(=O)O[C@H](/C(C)=C/[C@@H]3CC[C@@H](OC4OC(C)C(OC(C)=O)C(OC(C)=O)C4OC(C)=O)[C@H](OC)C3)[C@H](C)[C@@H](O)CC1=O)[C@H](C)C[C@@H]2OC (stereo partly drawn)	30	> 10	10	254	2.3	> 300	> 2910	11	10.4	> 10
C=CC[C@@H]1/C=C(\C)C[C@H](C)C[C@H](OC)[C@H]2O[C@@](O)(C(=O)C(=O)N3CCCC[C@H]3C(=O)O[C@H](/C(C)=C/[C@@H]3CC[C@@H](O)[C@H](OC)C3)[C@H](C)[C@@H](O)CC1=O)[C@H](C)C[C@@H]2OC [TACROLIMUS ANHYDROUS]	3	2	1.9	24	0.6	12	52	0.9	0.5	~2
C/C=C/C[C@@H](C)[C@@H](O)[C@H]1C(=O)N[C@@H](CC)C(=O)N(C)CC(=O)N(C)[C@@H](CC(C)C)C(=O)N[C@@H](C(C)C)C(=O)N(C)[C@@H](CC(C)C)C(=O)N[C@@H](C)C(=O)N[C@H](C)C(=O)N(C)[C@@H](CC(C)C)C(=O)N(C)[C@@H](CC(C)C)C(=O)N(C)[C@@H](C(C)C)C(=O)N1C [CYCLOSPORINE]	15		3.4		0.7					
